Results: article PMC5141248 (Biochemistry, 2016)

Target: human CP4H1 (Homo sapiens, UniProt P13674)
Test: UPLC peptide hydroxylation assay
Type: biochemical
Details: turnover; cosubstrate 0.1-10 mM, dansylGlyProProGlyOEt 500 μM, Fe(II) 50 μM, ascorbate 2 mM, pH 7.8, 30 °C

human CP4H1, sequence (P13674 18-534): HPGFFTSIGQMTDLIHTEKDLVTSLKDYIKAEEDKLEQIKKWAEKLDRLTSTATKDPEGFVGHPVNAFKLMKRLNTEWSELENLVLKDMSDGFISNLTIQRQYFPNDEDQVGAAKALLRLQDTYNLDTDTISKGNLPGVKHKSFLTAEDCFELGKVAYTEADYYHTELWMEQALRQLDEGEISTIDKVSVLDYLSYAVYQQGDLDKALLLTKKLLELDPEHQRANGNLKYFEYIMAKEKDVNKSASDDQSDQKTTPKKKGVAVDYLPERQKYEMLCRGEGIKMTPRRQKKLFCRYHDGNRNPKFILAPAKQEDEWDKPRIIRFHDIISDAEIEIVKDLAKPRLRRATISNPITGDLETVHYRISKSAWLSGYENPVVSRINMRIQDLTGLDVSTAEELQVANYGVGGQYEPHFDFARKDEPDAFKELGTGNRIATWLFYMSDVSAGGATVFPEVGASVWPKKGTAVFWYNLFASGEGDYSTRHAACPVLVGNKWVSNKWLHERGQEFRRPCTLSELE
human CP4H1, sequence (P07237 18-508 partner): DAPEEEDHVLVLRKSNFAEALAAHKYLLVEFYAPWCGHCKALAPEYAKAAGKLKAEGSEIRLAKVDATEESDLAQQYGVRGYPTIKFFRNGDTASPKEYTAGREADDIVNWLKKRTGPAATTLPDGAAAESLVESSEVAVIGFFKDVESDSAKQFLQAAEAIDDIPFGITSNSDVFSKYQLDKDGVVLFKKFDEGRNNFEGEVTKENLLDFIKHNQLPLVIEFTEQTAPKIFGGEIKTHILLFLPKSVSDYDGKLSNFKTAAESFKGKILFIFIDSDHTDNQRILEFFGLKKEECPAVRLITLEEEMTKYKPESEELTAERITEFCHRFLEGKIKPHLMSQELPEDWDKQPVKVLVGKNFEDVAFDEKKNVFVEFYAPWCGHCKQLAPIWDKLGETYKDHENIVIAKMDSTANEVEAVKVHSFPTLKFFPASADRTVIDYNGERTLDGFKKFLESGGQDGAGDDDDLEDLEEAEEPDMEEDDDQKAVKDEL

O=C(O)CCC(=O)C(=O)O [α-ketoglutarate]
UPLC peptide hydroxylation assay: the reaction was initiated by the addition of α-ketoglutarate
